Assay results: ChEMBL document CHEMBL5725380, “Substituted biaryl compound” (2017)

What follows are compounds tested against Prostaglandin E2 receptor EP2 subtype (Homo sapiens, UniProt P43116) (assay: Binding Assay: Measurement of EP2 receptor binding action was performed in accordance with the method of Abramovitz et al. (Biochimica et Biophysica Acta, 1483, 285 (2000)). A test compound dissolved in dimethyl sulfoxide (final concentration: 1.0 (V/V) %) and [3H]prostaglandin E2 (NET-428, manufactured by PerkinElmer) (final concentration: 10 nM) were added to a buffer solution (10 mM MES-KOH (pH 6.0), 10 mM MgCl2, 1 mM EDTA) in which 10 μg of a membrane fraction of HEK293 cells expressing human EP2 receptor (ES-562-M, manufactured by Euroscreen) was suspended, and then incubated at 30° C. for 60 minutes. The membrane fraction was recovered on glass fiber filter paper (GF/B, manufactured by Whatman) using a cell harvester (M30R, manufactured by Brandel), and after washing with a buffer solution (10 mM MES-KOH (pH 6.0), 10 mM MgCl2), radioactivity was measured with a liquid scintillation analyzer (2000CA, manufactured by Packard).).
Assay type: cell membranes

Sequence of Prostaglandin E2 receptor EP2 subtype (P43116 whole entry): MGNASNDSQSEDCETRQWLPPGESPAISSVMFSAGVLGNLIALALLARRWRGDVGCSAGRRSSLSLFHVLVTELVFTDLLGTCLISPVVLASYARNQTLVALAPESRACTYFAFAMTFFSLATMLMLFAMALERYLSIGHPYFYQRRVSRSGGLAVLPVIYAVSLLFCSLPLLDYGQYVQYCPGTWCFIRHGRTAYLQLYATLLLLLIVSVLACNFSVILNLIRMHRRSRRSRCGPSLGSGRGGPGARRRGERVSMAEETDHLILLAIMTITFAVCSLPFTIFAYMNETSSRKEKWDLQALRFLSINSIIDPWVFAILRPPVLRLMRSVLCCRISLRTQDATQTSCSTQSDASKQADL

| Structure (SMILES) | Ki [nM] |
| --- | --- |
| O=C(O)CNc1cccc(CN(Cc2ccc(-c3ccc(Cl)cc3)cc2)S(=O)(=O)c2cccnc2)n1 | > 10 |
| CCOc1ccccc1-c1ccc(CN(Cc2cccc(NCC(=O)O)n2)S(=O)(=O)c2ccccn2)cc1 | 2.6 |
| Cc1cnc(-c2ccc(CN(Cc3cccc(NCC(=O)O)n3)S(=O)(=O)c3ccccn3)cc2)s1 | > 10 |
| CC#Cc1cccc(-c2ccc(CN(Cc3cccc(NCC(=O)O)n3)S(=O)(=O)c3cccc(F)c3)cc2)c1 | 1.4 |
| CCOc1ccc(-c2ccc(CN(Cc3cccc(NCC(=O)O)n3)S(=O)(=O)c3ccccn3)cc2)cc1 | > 10 |
| CCCc1cccc(-c2ccc(CN(Cc3cccc(NCC(=O)O)n3)S(=O)(=O)c3ccccn3)cc2)c1 | 1.1 |
| CC#Cc1ccc(-c2ccc(CN(Cc3cccc(NCC(=O)O)n3)S(=O)(=O)c3ccccn3)cc2)cc1 | 6.8 |
| Cc1cccc(-c2ccc(CN(Cc3cccc(NCC(=O)O)n3)S(=O)(=O)c3ccccn3)cc2)c1 | 2.2 |
| CCc1cccc(-c2ccc(CN(Cc3cccc(NCC(=O)O)n3)S(=O)(=O)c3ccccn3)cc2)c1 | 1.4 |
| COc1cccc(-c2ccc(CN(Cc3cccc(NCC(=O)O)n3)S(=O)(=O)c3ccccn3)cc2)c1 | 1.2 |
| CC#Cc1ccccc1-c1ccc(CN(Cc2cccc(NCC(=O)O)n2)S(=O)(=O)c2ccccn2)cc1 | 0.75 |
| C=CCc1cccc(-c2ccc(CN(Cc3cccc(NCC(=O)O)n3)S(=O)(=O)c3ccccn3)cc2)c1 | 1.7 |
